From ChEMBL document CHEMBL1201862, “PubChem BioAssay data set” (2004)
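All cell lines were grown in 96-well plates and treated with compound for 48 hours. GI50: concentration for 50% inhibition of growth.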 Calls of active or inactive are those of the source. Rule as the data show it: active = GI50 up to about 1.1 µM and inactive = higher.

Columns and labels:
Experiment in all cases: NCI-60 cell line screen, 48 h
HL-60 = tested on: HL-60
SR = tested on: SR
DU-145 = tested on: DU-145
LOX IMVI = tested on: LOX IMVI
A549 = tested on: A549
UO-31 = tested on: UO-31
HCT-15 = tested on: HCT-15
NCI-H460 = tested on: NCI-H460
SK-MEL-28 = tested on: SK-MEL-28
SNB-19 = tested on: SNB-19
SF-295 = tested on: SF-295
SF-268 = tested on: SF-268
A498 = tested on: A498
OVCAR-8 = tested on: OVCAR-8
EKVX = tested on: EKVX
HCT-116 = tested on: HCT-116
MOLT-4 = tested on: MOLT-4
TK-10 = tested on: TK-10
HT-29 = tested on: HT-29
SN12C = tested on: SN12C

| Compound | GI50 (HL-60) | GI50 (SR) | GI50 (DU-145) | GI50 (LOX IMVI) | GI50 (A549) | GI50 (UO-31) | GI50 (HCT-15) [µM] | GI50 (NCI-H460) | GI50 (SK-MEL-28) | GI50 (SNB-19) | GI50 (SF-295) | GI50 (SF-268) | GI50 (A498) | GI50 (OVCAR-8) | GI50 (EKVX) | GI50 (HCT-116) | GI50 (MOLT-4) | GI50 (TK-10) | GI50 (HT-29) | GI50 (SN12C) |
| --- | --- | --- | --- | --- | --- | --- | --- | --- | --- | --- | --- | --- | --- | --- | --- | --- | --- | --- | --- | --- |
| COc1cc(/C=C/C(=O)Oc2ccc(NC(C)=O)cc2)ccc1C(=O)OCc1ccccc1 | > 72.3 µM (inactive) | > 100 µM (inactive) | > 77.3 µM (inactive) | 67.8 µM (inactive) | > 97.1 µM (inactive) | > 100 µM (inactive) | > 100 | > 73.1 µM (inactive) | > 100 µM (inactive) | 52.7 µM (inactive) | 40.6 µM (inactive) | 56.6 µM (inactive) | 60.3 µM (inactive) | > 88.9 µM (inactive) | > 100 µM (inactive) | > 100 µM (inactive) | > 85.3 µM (inactive) | > 95.9 µM (inactive) | > 100 µM (inactive) | > 92.5 µM (inactive) |
| CC(=O)NC(C)(C)C1CC=C(C)CC1 (stereo not given) | > 100 µM (inactive) | > 100 µM (inactive) | > 100 µM (inactive) | > 100 µM (inactive) | > 100 µM (inactive) | > 100 µM (inactive) | > 100 | > 100 µM (inactive) | > 100 µM (inactive) | > 100 µM (inactive) | > 100 µM (inactive) | > 100 µM (inactive) | > 100 µM (inactive) | > 100 µM (inactive) | > 100 µM (inactive) | > 100 µM (inactive) | > 100 µM (inactive) | > 100 µM (inactive) | > 100 µM (inactive) | > 100 µM (inactive) |
| Cc1ccc2c(c1)/C(=N/Nc1ccccc1[N+](=O)[O-])C(=O)N2 | > 100 µM (inactive) | 4.06 µM (inactive) | 25 µM (inactive) | 4.36 µM (inactive) | 27.9 µM (inactive) | 2.05 µM (inactive) | > 100 | 3.89 µM (inactive) | > 100 µM (inactive) | 37.2 µM (inactive) | 14.5 µM (inactive) | 3.4 µM (inactive) | 4.18 µM (inactive) | 3.45 µM (inactive) | 2.65 µM (inactive) | 3.01 µM (inactive) | > 100 µM (inactive) | 3.24 µM (inactive) | 31.6 µM (inactive) | 3.82 µM (inactive) |
| O=C(O)C1C(Br)(c2ccccc2)C1(Br)c1ccccc1 (stereo not given) | 12.4 µM (inactive) | 2.88 µM (inactive) | > 100 µM (inactive) | 22.2 µM (inactive) | 39 µM (inactive) | 16.2 µM (inactive) | 18.5 | 14.2 µM (inactive) | 21.5 µM (inactive) | 27.4 µM (inactive) | 37.9 µM (inactive) | 24.3 µM (inactive) | 25.5 µM (inactive) | 23 µM (inactive) | 86.7 µM (inactive) | 39.7 µM (inactive) | 15.2 µM (inactive) | 33.7 µM (inactive) | 20.7 µM (inactive) | 34.4 µM (inactive) |
